{"source": "patent US20110217265A1", "about": "“Screening for Inhibitors of HCV Amphipathic Helix (AH) Function” (priority 2008, published 2011)", "key": {"2a HCV RNA replicon": {"system": "2a HCV RNA replicon", "test": "2a HCV RNA replicon assay (FL-J6/JFH-5'C19Rluc2AUbi, luciferase)", "format": "cell-based, Hepatitis C Virus genotype 2a", "conditions": "full-length J6/JFH Luc, luciferase at 72 hr of treatment", "outline": "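Huh7.5 cells electroporated with in vitro-transcribed FL-J6/JFH-5′C19Rluc2AUbi RNA (full-length genotype 2a, Renilla luciferase) and treated from 24 h, with compound refreshed daily for 72 h. Replication measured as Renilla luminescence, normalized to untreated or matched-DMSO samples. Alamar Blue fluorescence on the same wells assessed cytotoxicity.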"}, "genotype 2a 4BAH2": {"target": "genotype 2a 4BAH2 (Hepatitis C virus genotype 2a, UniProt Q99IB8)", "sequence (Q99IB8 1758-1780)": "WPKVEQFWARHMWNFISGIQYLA", "test": "QCM-D of 4BAH2 membrane association with POPC bilayer, genotype 2a", "format": "binding", "design": "purchased Anaspec Corporation (San Jose, Calif., USA)", "procedure": "Quartz Crystal Microbalance-Dissipation (QCM-D). Adsorption kinetics and the properties of the adsorbed layer were studied using a Q-Sense E4, multiple channel system (Q-Sense AB, Gothenburg, Sweden). The samples are introduced using a peristaltic pump with flow rate of 0.1 mL·min^−1. AT-cut quartz crystals (Q-Sense) of 14 mm in diameter coated with a SiOx layer were used for all vesicle interaction and adsorption experiments. Each QCM crystal was treated with oxygen plasma at ˜80 watts for 3 min prior to measurement (March Plasmod Plasma Etcher, March Instruments, California, USA). Each crystal was initially driven near its resonance frequency as indicated by a maximum in the current. To capture the characteristic dissipation, the drive circuit was short-circuited and the exponential decay of the crystal oscillation was recorded and analyzed, yielding the frequency and dissipation changes at 5, 15, 25, 35, 45, 55, and 65 MHz. The temperature of the Q-Sense cell was set at 25.0° C. and accurately controlled by a Peltier element in the cell with fluctuation smaller than ±0.05° C. All experiments were repeated at least three times, with a standard deviation of less than 2%."}, "[1]": {"system": "genotype 2b luciferase reporter-linked HCV replicons", "test": "HCV replication assay in combination with NS3 protease inhibitor SCH503034", "format": "cell-based, Hepatitis C Virus", "conditions": "combination with various concentrations of SCH503034, FIG. 11", "procedure": "FIG. 11. 4BAH2 inhibitors can increase the anti-HCV activity of agents targeting other elements of HCV. The compound of FIG. 10 was tested in standard HCV replication assays as in FIG. 10 but in the presence of various concentrations of an NS3 protease inhibitor (SCH503034, “SCH”). Note that in these assays a genotype 2b luciferase reporter-linked HCV replicons was used, indicating the broad spectrum potential of the C4 compound against multiple HCV genotypes.\nTo determine the optimum combination of an HCV AH function inhibiting agent, such as 5-(N-Methyl-N-isobutyl)amiloride, with other anti-HCV agents, HCV replication assays and/or animal studies can be performed in the presence of various combinations of the various anti-HCV agents. Increased inhibition of replication in the presence of an additional agent (above that observed with monotherapy) is evidence for the potential benefit of the combination therapy. For example, HCV replication assays employing a luciferase reporter-linked HCV genome in the presence of various combinations of 3-amino-N-carbamimidoyl-6-chloro-5-(isobutyl(methyl)amino)pyrazine-2-carboxamidepyrazine-2-carboxamide and an NS3 protease inhibitor (SCH503034) are described elsewhere in this application and some results are shown in FIG. 11.\nEffect of hits on HCV replication. […]"}}, "data": [{"smiles": "CC(C)CN(C)c1nc(N)c(C(=O)NC(=N)N)nc1Cl", "note": "[C4, 3-amino-N-carbamimidoyl-6-chloro-5-(isobutyl(methyl)amino)pyrazine-2-carboxamide]", "values": [{"measurement": "Inhibition of HCV genotype 2a viral genome replication", "setting": "2a HCV RNA replicon", "value": "exhibited inhibition"}, {"measurement": "Effect on genotype 2a 4BAH2 membrane association (QCM-D)", "setting": "genotype 2a 4BAH2", "value": "no effect"}, {"measurement": "Effect on anti-HCV activity of NS3 protease inhibitor SCH503034", "setting": "[1]", "value": "increases the anti-HCV activity"}]}]}
